Assay [1] concerns IFNβ. Description: qRT-PCR of IFNβ mRNA. The class given is cell-based, human. The following applies: SCC23 cells. The method, then: For qRT-PCR, total RNA was prepared using TRIzol reagent (Thermo Fisher Scientific Cat #15596026), and 1 μg of RNA was reversely transcribed with random primer (Thermo Fisher Scientific Cat #48190011), dNTP mix (Thermo Fisher Scientific, Cat #18427013), and M-MuLV Reverse Transcriptase (New England Biolabs, Cat #M0253L). The levels of mRNA were […] measured using a SYBRGreen supermix (Bio-Rad, Cat #1708880). GAPDH was used as an internal control.
(Quantitative PCR measures a nucleic acid by following its amplification.)

Assay [2] deals with B16 melanoma. The class given is in vivo, mouse. As to conditions: B16 tumors in immunocompetent mice. The procedure: C57/6J mice were injected in the flank subcutaneously with B16 melanoma cells (250,000 cells per site). Tumors were measured every 3 days once palpable (long diameter and short diameter) with a caliper. Tumor volume was determined using the volume formula for an ellipsoid: ½×D×d^2 where D is the longer diameter and d is the shorter diameter. Mice were sacrificed when tumors reached 1000 mm^3 or upon ulceration/bleeding.

In assay [3] the test system is HNSCC tumor cells. Description: Anti-active caspase-3 (Ac-casp3) immunostaining of apoptosis in HNSCC. The class given is in vivo, mouse. The following applies: 4NQO-induced HNSCC, treated 4 weeks. The procedure: (§1) The immunocomplexes were detected and visualized using related secondary antibodies conjugated with Cy2 or Cy3 (Jackson ImmunoResearch Laboratories). […] At least three sections from each HNSCC lesions were immunostained and analyzed. Tumor cells (>150) and CD8+, Ac-casp3+ and Tomato^+ cells of these tumor cell areas were counted manually in each section. The percentage of CD8+, Ac-casp3^+ and Tomato^+ cells were calculated by dividing those cells with tumor cells and averaged from the sections.

The subject of assay [4] is SCC23 cells. The assay is described as follows: RNA-Seq and GO analysis in SCC23 cells. The format is cell-based, human. The procedure:
Total RNA was isolated from PTC209-treated or shBMI1 knockdown SCC cells using a RNeasy Micro Kit (QIAGEN, Cat #74004). RNA quality was examined using an Agilent 2100 Bioanalyzer. Library preparation using the KAPA RNA-Seq Library Preparation Kits (KAPA Biosystems, Cat #07960140001) was performed at the UCLA sequencing core facility, and RNAs were single-end sequenced on Illumina HiSeq 3000 machines. The online DAVID bioinformatics resources were used to analyze the differentially expressed genes under the category of GOTERM_BP_DIRECT. The heatmap was generated with Heatmap Builder. The raw data was deposited at the Gene Expression Omnibus (GEO) under the subseries entry GSE140433.

The subject of assay [5] is cytosolic dsDNA. Description: Cytosolic dsDNA staining (PicoGreen/MitoTracker). The format is cell-based, human. As to conditions: SCC23 and SCC1 cells. The procedure: Following the treatment, SCC23 and SCC1 cells were incubated with culture media containing PicoGreen (dsDNA stain, 200-fold dilution, Thermo Fisher Scientific, Cat #P11496) and MitoTracker ([…], 100 nM, Thermo Fisher Scientific, Cat #M7512). One hour after incubation, cells were fixed with 4% paraformaldehyde for 10 min. Cells were then washed twice with PBS and stained with DAPI (Sigma-Aldrich, Cat #D9542) and mounted with SlowFade Antifade Reagents (Thermo Fisher Scientific, Cat #536937). Staining was imaged and assessed using a Leica SP5X laser scanning confocal microscope.

Assay [6] has as its system BMI1. Description: Western blot of BMI1 and H2AUb in SCC23 and SCC1 cells. The class given is cell-based, human. The procedure:
Human SCC23 and SCC1 cells were grown in DMEM containing 10% FBS and antibiotics (streptomycin and penicillin) at 37° C. in a 5% CO2 atmosphere. To generate lentiviruses, scramble control (shCtrl, Addgene, Cat #1864; see Sarbassov et al Science 2005 Feb. 18; 307(5712):1098-101) and BMI1 specific shRNA lentiviral plasmids (shBmi1, Sigma-Aldrich, Cat #TRCN0000020156, comprising […], SEQ ID NO:35) were transfected into HEK293T cells with two helper plasmids psPAX2 (Addgene, Cat #12260) and pMD2.G (Addgene, Cat #12259). Viral supernatant was harvested 72 h after transfection and passed through a 0.45 μm filter to remove cell debris and live cells. Collected lentiviruses were used directly to infect cells with the addition of polybrene (Sigma-Aldrich, Cat #H9268), or frozen at −80° C. for later use. […]
Cells were lysed using the radioimmunoprecipitation assay (RIPA) buffer (Sigma-Aldrich, Cat #R0278) added with a cocktail of protease inhibitors (Thermo Fisher Scientific, Cat ##78430) and phosphatase inhibitors (Sigma-Aldrich, Cat #4906845001). […] The signals were detected using the Clarity Western ECL kit (Bio-Rad, Cat #1705060). […] After treatment, supernatants were collected, and the protein levels of CCL5, CXCL9, CXCL10 and CXCL11 were measured with ELISA (R&D Systems, Cat #DRN00B, DCX900, DIP100, DCX110) according to the manufacturer's instructions.
Background: Immunoblotting shows a protein as a band on a membrane.

Assay [7] has as its system CD8+ T cells. The assay is described as follows: Immunostaining of CD8+ T cells in HNSCC. The format is in vivo, mouse. The following applies: 4NQO-induced HNSCC, treated 4 weeks. The method, then:
as §1

The values below come from US20230233566A1, “INHIBITION OF BMI1 ELIMINATES CANCER STEM CELLS AND ACTIVATES ANTITUMOR IMMUNITY” (The Regents of the University of California, priority 2020, published 2023).

For `COc1cc(Br)c(Nc2nc(-c3c(C)nc4ncccn34)cs2)c(Br)c1` [PTC209, N-(2,6-dibromo-4-methoxyphenyl)-4-(2-methylimidazo[1,2-a]pyrimidin-3-yl)thiazol-2-amine], the “IFNβ mRNA expression” value in assay [1] is given as “induction of IFNβ mRNA expression in SCC23 cells”. In assay [2], the “melanoma resistance to anti-PD1” value is recorded as “overcomes melanoma resistance to anti-PD1 by recruiting CD8+ T cells”. Besides, the “apoptosis in Tomato+ BMI1+ CSCs” value in assay [3] is reported as “able to induce apoptosis in Tomato^+ CSCs”. In addition, the “IFN-regulated chemokines (CCL5, CXCL9, CXCL10, and CXCL11), RNA-seq heatmap” value in assay [4] was “significantly increased”. In addition, the “GO analysis of induced genes” value in assay [4] (RNA-Seq) is “induced the expression of genes associated with immune response and chemotaxis”. For the same molecule, the “accumulation of cytosolic dsDNA” value in assay [5] is given as “induced the accumulation of cytosolic dsDNA”. In assay [6], the “BMI1 and H2AUb levels” value is “reduced BMI1 and H2AUb in SCC23 and SCC1 cells in a dose-dependent manner”. The “CD8+ T cell infiltration in HNSCC” value in assay [7] is “could induce CD8+ T cell infiltration in tumors”.
